Source: publication PMC7127386 (Antiviral Research, 2020)
Entries after “also recorded” stand apart in the source; their conditions may differ. Where two headings read alike, the source gives them in different places.

Legend:
SARS-CoV-2 virus [1] = assay type: cell-based
SARS-CoV-2 virus [2] = assay type: cell-based; remark: listed apart in the source
SARS-CoV-2 virus [3] = assay type: cell-based; conditions: read-out: Reduction in viral RNA copy (EC50)
SARS-CoV-2 virus [4] = assay type: cell-based; conditions: read-out: Reduction in infectious virus (EC50)

CN[C@H]1C(=O)N[C@@H]2Cc3ccc(cc3)Oc3cc4cc(c3O[C@@H]3O[C@H](C(=O)O)[C@@H](O)[C@H](O)[C@H]3NC(=O)CCCCCCCCC(C)C)Oc3ccc(cc3Cl)[C@@H](O)[C@@H]3NC(=O)[C@H](NC(=O)[C@@H]4NC(=O)[C@@H](NC2=O)c2cc(cc(O)c2Cl)Oc2cc1ccc2O)c1ccc(O)c(c1)-c1c(O[C@H]2O[C@H](CO)[C@@H](O)[C@H](O)[C@@H]2O)cc(O)cc1[C@@H](C(=O)NCCCN(C)C)NC3=O.Cl [Dalbavancin hydrochloride]
CPE inhibition (lowest concentration of the compound with 100% CPE inhibition) (SARS-CoV-2 virus [1]): >100 µM

NC(=O)c1nc(F)c[nH]c1=O [Favipiravir]
Antiviral effect against SARS-CoV-2 virus in vitro (in words) (SARS-CoV-2 virus [2]): no apparent antiviral effect; also recorded: did not inhibit viral replication
Inhibition of SARS-CoV-2 (in words) (SARS-CoV-2 virus [2]): no inhibition

Nc1nc(F)nc2c1ncn2[C@@H]1O[C@H](COP(=O)(O)O)[C@@H](O)[C@@H]1O [Fludarabine phosphate]
Antiviral effect against SARS-CoV-2 virus in vitro (in words) (SARS-CoV-2 virus [2]): did not inhibit viral replication

Nc1ncnc2c([C@@H]3N[C@H](CO)[C@@H](O)[C@H]3O)c[nH]c12 [Galidesivir]
Antiviral effect against SARS-CoV-2 virus in vitro (in words) (SARS-CoV-2 virus [2]): did not inhibit viral replication

CN[C@H](CC(C)C)C(=O)N[C@H]1C(=O)N[C@@H](CC(N)=O)C(=O)N[C@H]2C(=O)N[C@H]3C(=O)N[C@H](C(=O)N[C@H](C(=O)O)c4cc(O)cc(O)c4-c4cc3ccc4O)[C@H](O[C@H]3C[C@](C)(N)[C@@H](O)[C@H](C)O3)c3ccc(c(Cl)c3)Oc3cc2cc(c3O[C@@H]2O[C@H](CO)[C@@H](O)[C@H](O)[C@H]2O[C@H]2C[C@](C)(NCc3ccc(-c4ccc(Cl)cc4)cc3)[C@@H](O)[C@H](C)O2)Oc2ccc(cc2Cl)[C@H]1O.O=P(O)(O)O.O=P(O)(O)O [Oritavancin diphosphate]
CPE inhibition (lowest concentration of the compound with 100% CPE inhibition) (SARS-CoV-2 virus [1]): >100 µM

CCC(CC)O[C@@H]1C=C(C(=O)O)C[C@H](N)[C@H]1NC(C)=O [Oseltamivir carboxylate]
CPE inhibition (lowest concentration of the compound with 100% CPE inhibition) (SARS-CoV-2 virus [1]): >100 µM
CC50 (Vero E6 cells): > 100 µM
Antiviral effect against SARS-CoV-2 virus in vitro (in words) (SARS-CoV-2 virus [2]): no apparent antiviral effect
EC50 (SARS-CoV-2 virus [3]): > 100 µM
EC50 (SARS-CoV-2 virus [4]): > 100 µM

[N-]=[N+]=N[C@]1(CO)O[C@@H](n2ccc(N)nc2=O)[C@H](O)[C@@H]1O [R-1479]
CPE inhibition (lowest concentration of the compound with 100% CPE inhibition) (SARS-CoV-2 virus [1]): >100 µM
CC50 (Vero E6 cells): > 100 µM
Antiviral effect against SARS-CoV-2 virus in vitro (in words) (SARS-CoV-2 virus [2]): did not inhibit viral replication

NC(=O)c1ncn([C@@H]2O[C@H](CO)[C@@H](O)[C@H]2O)n1 [Ribavirin]
Antiviral effect against SARS-CoV-2 virus in vitro (in words) (SARS-CoV-2 virus [2]): no apparent antiviral effect; also recorded: did not inhibit viral replication
Inhibition of SARS-CoV-2 (in words) (SARS-CoV-2 virus [2]): no inhibition

C[C@H](Cn1cnc2c(N)ncnc21)OCP(=O)(O)O [Tenofovor]
Antiviral effect against SARS-CoV-2 virus in vitro (in words) (SARS-CoV-2 virus [2]): did not inhibit viral replication
